Several values for one entry are separate records, joined by “and”; a condition that tells them apart may be missing. Equal entries are not always repeated. Entries after “also recorded” stand apart in the source; their conditions may differ. Where two headings read alike, the source gives them in different places.
Key:
[1] = in vivo; cited from earlier work
[2] = assay type: physicochemical; settings: 6 mg dose, no pepsin, after 24 hours
Experimental: A 250 mL volumetric flask was used to simulate the capacity of stomach gastric volume, and a pH 1.5 HCl buffer (0.8% NaCl, 0.04% CaCl2) was used for the simulated gastric fluid (SGF).

[3] = pH buffer of pH between 8 and 9, room temperature
From the text: In a more preferred embodiment, pH of about 8 to 9, is provided. For example, a buffer close to a pH of about 8.3 can be used.

[4] = 2 mg/mL in pH 7 phosphate buffer (100 mM), RT
[5] = buffer at pH 7, glycerin increased to 35% by volume
[6] = pH 9 carbonate buffer, after approximately 1 week at 50° C.
[7] = for Color change: 50° C.

Question: For `CC(=O)CC(c1ccccc1)c1c(O)c2ccccc2oc1=O` (racemic) [warfarin], which “apparent Vd” value [1] is on record?
Answer: 0.13 L/kg

Question: Which results are given for `CC(=O)CC(c1ccccc1)c1c([O-])c2ccccc2oc1=O.[Na+]` (stereo not shown) [warfarin sodium, 4-hydroxy-3-(3-oxo-1-phenylbutyl)-2H-1-benzopyran-2one sodium salt]?
Answer: precipitation of warfarin sodium in SGF [2]: precipitate out of solution; precipitation [3]: free of precipitation for at least one month; Warfarin concentration ([4]; time 0.017 hr): 1.846 mg/mL; Warfarin concentration ([4]; time 0.083 hr): 1.819 mg/mL; Warfarin concentration ([4]; time 0.167 hr): 1.796 mg/mL; Warfarin concentration ([4]; time 0.333 hr): 1.847 mg/mL; Warfarin concentration ([4]; time 0.5 hr): 1.844 mg/mL; Warfarin concentration ([4]; time 1 hr): 1.8765 mg/mL; Warfarin concentration ([4]; time 3 hr): 1.858 mg/mL; Warfarin concentration ([4]; time 5 hr): 1.804 mg/mL; Warfarin concentration ([4]; time 10 hr): 1.822 mg/mL; Warfarin concentration ([4]; time 13.5 hr): 2.0099 mg/mL; Warfarin concentration ([4]; time 17.25 hr): 1.97 mg/mL; Warfarin concentration ([4]; time 48 hr): 1.113 mg/mL; Warfarin concentration ([4]; time 192 hr, sodium salt): 0.357 mg/mL and 0.362 mg/mL; precipitation of warfarin [5]: prevents precipitation; Color change [6]: slight yellowing; Color change ([7]; 1:1 mixture with ethanol, pH 8 buffer): No color change; Color change ([7]; 1:1 mixture with glycerin, pH 8 buffer): No color change; % degradation of warfarin sodium ([7]; Phosphate buffer pH 8 alone, 1 month at 50° C.): 1.4%; Color change ([7]; Phosphate buffer pH 8 alone): Light yellow; Color change ([7]; pH 8 buffer with Liquid sugar (50% v/v), sodium salt): slight yellow color change; % degradation of warfarin sodium ([7]; pH 8 buffer with Liquid sugar (50% v/v), after 312 hr at 50° C.): 2.4 (after 312 hr) %; Color change ([7]; pH 8 buffer with Mannitol (5% w/v), sodium salt): slight yellow color change; also recorded: Light yellow; % degradation of warfarin sodium ([7]; pH 8 buffer with Mannitol (5% w/v), after 384 hr at 50° C.): 1.9 (after 384 hr) %; % degradation of warfarin sodium ([7]; pH 8 buffer with Saccharin (0.5% w/v), 1 month at 50° C.): 3.3%; Color change ([7]; pH 8 buffer with Saccharin (0.5% w/v), sodium salt): slight yellow color change; also recorded: Light yellow; % degradation of warfarin sodium ([7]; pH 8 buffer with Sorbitol (50% v/v), 1 month at 50° C.): 2.9%; Color change ([7]; pH 8 buffer with Sorbitol (50% v/v), sodium salt): slight yellow color change; also recorded: Light yellow; % degradation of warfarin sodium ([7]; pH 8 buffer with TWEEN 80 (0.5% v/v), 1 month at 50° C.): 5.1%
